Assay results taken from US20250019371A1, “SMALL-MOLECULAR INHIBITORS FOR THE BETA-CATENIN/ B-CELL LYMPHOMA 9 PROTEIN-PROTEIN INTERACTION” (H. LEE MOFFITT CANCER CENTER AND RESEARCH INSTITUTE, INC., priority 2021, published 2025).
Read-outs that look alike come from different tables or passages of the source.

Assays:
[1] = biological target: T1, β-catenin/BCL9 PPI (Homo sapiens, UniProt P35222); experiment: AlphaScreen competitive inhibition assay of β-catenin/BCL9 PPI; assay type: binding; details: for AlphaScreen inhibitory activity in words: SAR comparison
T1 construct: Full-length β-catenin (residues 1-781); host or cells: E. coli BL21 DE3
T1 sequence (P35222 1-781): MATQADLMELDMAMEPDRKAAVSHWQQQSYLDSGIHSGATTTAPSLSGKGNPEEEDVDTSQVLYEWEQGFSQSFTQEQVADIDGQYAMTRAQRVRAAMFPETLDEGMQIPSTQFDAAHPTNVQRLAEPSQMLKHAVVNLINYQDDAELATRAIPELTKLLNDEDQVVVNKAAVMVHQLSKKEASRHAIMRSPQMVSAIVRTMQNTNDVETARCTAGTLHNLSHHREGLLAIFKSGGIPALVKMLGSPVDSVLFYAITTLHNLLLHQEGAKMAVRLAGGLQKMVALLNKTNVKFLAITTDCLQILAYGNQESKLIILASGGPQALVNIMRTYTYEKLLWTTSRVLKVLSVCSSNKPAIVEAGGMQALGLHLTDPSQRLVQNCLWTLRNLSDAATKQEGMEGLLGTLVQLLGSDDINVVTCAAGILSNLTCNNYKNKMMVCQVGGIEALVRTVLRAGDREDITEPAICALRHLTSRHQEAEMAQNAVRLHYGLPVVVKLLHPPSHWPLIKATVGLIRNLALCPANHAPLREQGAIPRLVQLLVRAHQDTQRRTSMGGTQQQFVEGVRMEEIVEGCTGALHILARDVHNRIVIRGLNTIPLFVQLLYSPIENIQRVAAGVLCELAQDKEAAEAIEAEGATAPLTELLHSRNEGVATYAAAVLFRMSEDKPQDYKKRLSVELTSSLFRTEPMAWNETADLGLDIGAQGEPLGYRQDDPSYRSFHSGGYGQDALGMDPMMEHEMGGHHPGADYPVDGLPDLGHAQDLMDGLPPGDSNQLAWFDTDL
Experimental: AlphaScreen Assays of β-Catenin and BCL9 Interaction. Experiments were performed in white opaque 384-well plates from PerkinElmer (Waltham, MA), and the samples were read on a Biotek Synergy 2 plate reader (Winooski, VT) with excitation at 680 nm and emission at 570 nm. The standard AlphaScreen protocol was used with a sensitivity setting of 200. All dilutions were made in 1x assay buffer containing 25 mM Hepes (pH 7.4), 100 mM NaCl, 0.01% Triton X-100 and 0.1% BSA to minimize nonspecific interactions.
For the β-catenin/BCL9 assay, 5 nM biotinylated BCL9, and 50 nM His6-tagged 8-catenin were incubated in assay buffer for 30 min. Different concentrations of the tested inhibitor were added and incubated in 20 μL assay buffer for another 1 h. All of the assay plates were covered and gently mixed on an orbital shaker. Donor and acceptor beads were then added to the plates to a final concentration of 10 μg/mL in 25 μL assay buffer. The mixture was incubated for 1 h before detection. The IC50 value was determined by nonlinear least-square analysis of GraphPad Prism 8.0. […] All of the experiments were performed in triplicate and carried out in the presence of 1% DMSO for small-molecule inhibitors. Each compound was assayed at least by three independent experiments. The results were expressed as mean±standard deviation.

[2] = tested on: SW480; experiment: MTS cell viability assay, SW480; assay type: cell-based; details: Homo sapiens, 72 h, Wnt/β-catenin hyperactive, mean ± SD (n = 3)
Experimental: (§1) MTS Cell Growth Inhibition Experiments. Colorectal cancer cells (SW480 and HCT116) and triple negative breast cancer cells (MDA-MB-231 and MDA-MB-468) were seeded in 96-well plates at 5×10^3 cells/well in DMEM with 10% FCS, maintained overnight at 37° C., and incubated with the tested compounds at various concentrations. Human mammary epithelial cell MCF10A were seeded in 96-well plates at 1×10^4 cells/well in MEGM (CC-3150, Lonza) with 100 ng/mL cholera toxin, maintained overnight at 37° C., and incubated with the tested compounds at various concentrations. Cell viability was monitored after 72 h using a freshly prepared mixture of 1 part phenazine methosulfate (PMS, Sigma) solution (0.92 mg/mL) and 19 parts 3-(4,5-dimethylthiazol-2-yl)-5-(3-carboxymethoxyphenyl)-2-(4-sulfophenyl)-2H-tetrazolium (MTS, Promega) solution (2 mg/mL). Cells were incubated in 10 μL of this solution at 37° C. for 3 h, and A490 was measured. […] Experiments were performed in triplicate.

[3] = tested on: HCT116; experiment: MTS cell viability assay, HCT116; assay type: cell-based; details: Homo sapiens, HCT-116; 72 h, Wnt/β-catenin hyperactive, mean ± SD (n = 3)
Experimental: as §1

[4] = tested on: MDA-MB-231; experiment: MTS cell viability assay, MDA-MB-231; assay type: cell-based; details: Homo sapiens, 72 h, Wnt/β-catenin hyperactive, mean ± SD (n = 3)
Experimental: as §1

[5] = tested on: MDA-MB-468; experiment: MTS cell viability assay, MDA-MB-468; assay type: cell-based; details: Homo sapiens, 72 h, Wnt/β-catenin hyperactive, mean ± SD (n = 3)
Experimental: as §1

[6] = tested on: MCF10A; experiment: MTS cell viability assay, MCF10A; assay type: cell-based, human; details: for IC50: Homo sapiens, MCF-10A, 72 h, Wnt/β-catenin normal, mean ± SD (n = 3)
Experimental: as §1

[7] = tested on: Wnt/β-catenin hyperactive cancer cells; experiment: MTS cell viability assays, cell panel; assay type: cell-based; details: Homo sapiens, MCF-10A; all tested cells incl. MCF10A; read-out: MTS IC50 on all tested cells
Experimental: as §1

[8] = tested on: Wnt/β-catenin signaling (TOPFlash luciferase reporter); experiment: TOPFlash luciferase reporter assay in SW480 cells; assay type: cell-based; details: Homo sapiens, 24 h
Experimental: The suppressing effect of the inhibitors on transactivation of Wnt/β-catenin signaling was evaluated by the TOPFlash/FOPFlash luciferase reporter assay. In the TOPFlash assay, the luciferase reporter has three wild-type Tcf4 binding sites, while in the FOPFlash assay Tcf4 binding sites were mutated. These tandem Tcf binding sites controls the expression ratio of the firefly luciferase in TOPFlash/FOPFlash assays. The renilla luciferase reporter construct (pCMV-RL) was used as the internal control to normalize luciferase reporter signals and eliminate any possible systematic errors. […] This selectivity trend is consistent with that from MTS cell viability assays. Therefore, further cell-based studies were focused on compound 30.
Cell Transfection and Luciferase Assay. FuGENE6 (E269A, Promega) 96 well plate format was used for the transfection of SW480 cells according to the manufacturer's instruction. SW480 cells were co-transfected with 60 ng the TOPFlash or FOPFlash firefly luciferase reporter gene and 40 ng renilla luciferase pCMV-RL normalization reporter gene. Cells were cultured in DMEM and 10% FBS at 37° C. for 24 h, and different concentrations of inhibitors or DMSO was added. After 24 h, the luciferase reporter activity was measured using the Dual-Glo system (E2940, Promega). […]

SMILES: CC(C)(C)OC(=O)C(C)(C)Oc1cccc(N2CCCC(C(=O)N(Cc3ccc(-c4cccs4)cc3)C3CC3)C2)c1 (centres unmarked) [Compound 17, tert-Butyl 2-(3-(3-(cyclopropyl(4-(thiophen-2-yl)benzyl)carbamoyl)piperidin-1-yl)phenoxy)-2-methylpropanoate]
- Ki ([1]; AlphaScreen competitive inhibition assay, read-out: Ki for disruption of the β-catenin/BCL9 PPI): > 90 µM
- AlphaScreen inhibitory activity in words [1]: significant potency loss
- IC50 ([1]; Table 1, AlphaScreen, inhibitors 16-26): > 100 µM
- Ki ([1]; Table 1, AlphaScreen, inhibitors 16-26, Ki derived from IC50, read-out: Ki): > 90 µM
- IC50 [2]: > 200 µM
- IC50 [3]: > 200 µM
- IC50 [4]: > 200 µM
- IC50 [5]: > 200 µM
- IC50 [6]: > 200 µM
- IC50 [7]: > 200 µM

SMILES: COc1cccc(S(=O)(=O)NC(=O)C(C)(C)Oc2cccc(N3CCC[C@H](C(=O)N(Cc4ccc(-c5cccs5)cc4)C4CC4)C3)c2)c1 [Compound 28, (S)—N-Cyclopropyl-1-(3-((1-((3-methoxyphenyl)sulfonamido)-2-methyl-1-oxopropan-2-yl)oxy)phenyl)-N-(4-(thiophen-2-yl)benzyl) piperidine-3-carboxamide]
- AlphaScreen inhibitory activity in words [1]: slightly superior to R-isomer
- IC50 ([1]; Table 2, AlphaScreen, inhibitors 27-30 (R- and S-isomers), preliminary): ≤ 5 µM
- Ki ([1]; Table 2, AlphaScreen, inhibitors 27-30 (R- and S-isomers), preliminary, read-out: Ki): ≤ 5 µM
- IC50 [2]: 28.2 ± 1.08 µM
- IC50 [3]: 29.9 ± 1.99 µM
- IC50 [4]: 19.8 ± 1.59 µM
- IC50 [5]: 15.4 ± 2.49 µM
- IC50 [6]: 30.4 ± 2.47 µM
- selectivity for hyperactive cancer cells over normal MCF10A cells ([6]; MTS IC50 MCF10A versus cancer cells): much less selective over MCF10A cells
- IC50 [8]: 7.8 µM
